Results: patent US5225437A, “1,2,4-trioxane compounds having antimalarial activity” (The Johns Hopkins University, priority 1992, dated 1993)
“Also recorded” adds a separate entry of the source. Like-named read-outs stand apart in the source and are kept apart here.

Columns and labels:
W-2 Indochine Clone = settings: cited from earlier work; for IC50: Table V, read-out: Fifty Percent Inhibitory Concentrations, W-2 Indochine Clone; for Artemisinin Indices, W-2 Indochine Clone: intrinsic equimolar activity relative to the simultaneous artemisinin control
D-6 Sierra Leone Clone = settings: cited from earlier work; for IC50: Table V, read-out: Fifty Percent Inhibitory Concentrations, D-6 Sierra Leone Clone; for Artemisinin Indices, D-6 Sierra Leone Clone: intrinsic equimolar activity relative to the simultaneous artemisinin control
[1] = test system: P. falciparum malaria parasite clone Sierra Leone (D-6); experiment: in vitro susceptibility testing, uptake of tritiated hypoxanthine as index of inhibition of parasite growth, Sierra Leone (D-6) clone; settings: Plasmodium falciparum; for IC50: read-out: D6 IC50
[2] = test system: P. falciparum malaria parasite clone Indochina (W-2); experiment: in vitro susceptibility testing, uptake of tritiated hypoxanthine as index of inhibition of parasite growth, Indochina (W-2) clone; format: cell-based; settings: Plasmodium falciparum; for IC50: read-out: W2 IC50
[3] = test system: P. falciparum D-6 African Clone; experiment: anti-malarial in vitro testing against P. falciparum clones, D-6 African clone; format: cell-based; settings: Table VI, D-6 value over W-2 value
[4] = test system: P. falciparum malaria parasite clones; experiment: anti-malarial activity in words (overall, both P. falciparum clones)
[5] = compared with known anti-malarial drugs
[6] = Table III, INDOCHINA CLONE (W-2), read-out: IC90
[7] = Table IV, W2, read-out: W2 IC90

| IC50 [1] | IC50 ([2]; Table IV, W2) | IC90 [1] | Structure (SMILES) | IC50 (W-2 Indochine Clone) | Artemisinin Indices, W-2 Indochine Clone (W-2 Indochine Clone) | IC50 (D-6 Sierra Leone Clone) | Artemisinin Indices, D-6 Sierra Leone Clone (D-6 Sierra Leone Clone) | also measured |
| --- | --- | --- | --- | --- | --- | --- | --- | --- |
|  |  | 19 nM | COC1OC2(C)CCC3CCCC(CCOS(=O)(=O)c4ccc(C)cc4)C31OO2 (stereo not shown) [Compound 23] |  |  |  |  | IC90 [2, 6]: 10.2 nM |
|  |  | 58.8 nM | COC(=O)c1ccccc1S(=O)(=O)OCCC1CCCC2CCC3(C)OOC12C(OC)O3 (stereo not shown) [Compound 24] |  |  |  |  | IC90 [2, 6]: 19.7 nM |
|  |  | 4.43 nM | COC1OC2(C)CCC3CCCC(CCOC(=O)CNC(=O)OC(C)(C)C)C31OO2 (stereo not shown) [Compound 25] |  |  |  |  | anti-malarial activity / potency in words [4, 5]: substantial improvement over artemisinin |
|  |  | 3.93 nM | COC1OC2(C)CCC3CCCC(CCOC(=O)N(C)C)C31OO2 (stereo not shown) [Compound 26] |  |  |  |  | anti-malarial activity / potency in words [4, 5]: particularly potent; IC90 [2, 6]: 1.29 nM |
|  |  | 30.2 nM | COC1OC2(C)CCC3CCCC(CCOS(=O)(=O)N(C)C)C31OO2 (stereo not shown) [Compound 27] |  |  |  |  | IC90 [2, 6]: 23 nM |
| 5.16 nM | 1.04 nM |  | COC1OC2(C)CCC3CCCC(CCOS(=O)(=O)c4cccc5c(N(C)C)cccc45)C31OO2 (stereo not shown) [Compound 32] |  |  |  |  | IC90 ([1]; read-out: D6 IC90): 10 nM; IC90 [2, 7]: 7.17 nM |
| 0.39 nM | < 0.28 nM |  | CCN(CC)C(=O)OCCC1CCCC2CCC3(C)OOC12C(OC)O3 (stereo not shown) [Compound 34] |  |  |  |  | anti-malarial activity / potency in words [4, 5]: comparable in potency to arteether; also recorded: higher potency than artemisinin; also recorded: particularly potent; IC90 ([1]; read-out: D6 IC90): 1.18 nM; IC90 [2, 7]: < 0.28 nM |
| 256 nM | 24.2 nM | 115 nM | COC1OC2(C)CCC3CCCC(CCOC(=O)c4ccc(C(=O)O)cc4)C31OO2 (stereo not shown) [Compound 36] |  |  |  |  | IC90 ([1]; read-out: D6 IC90): 516 nM; IC90 [2, 6]: 46.1 nM; IC90 [2, 7]: 979 nM |
|  |  | 13.7 nM | COCCC1CCCC2CCC3(C)OOC12C(OC)O3 (stereo not shown) [Compound 101] |  |  |  |  | IC90 [2, 6]: 4.62 nM |
| 1.22 nM | 0.25 nM |  | COC1OC2(C)CCC3CCCC(CCOCc4ccccc4)C31OO2 (stereo not shown) [Compound 102] |  |  |  |  | anti-malarial activity / potency in words [4, 5]: particularly potent anti-malarial activity; IC90 ([1]; read-out: D6 IC90): 3.27 nM; IC90 [2, 7]: 1.53 nM |
| 1.08 nM | 0.32 nM |  | C=CCOCCC1CCCC2CCC3(C)OOC12C(OC)O3 (stereo not shown) [Compound 104] |  |  |  |  | anti-malarial activity / potency in words [4, 5]: particularly potent anti-malarial activity; IC90 ([1]; read-out: D6 IC90): 15.7 nM; IC90 [2, 7]: 2.37 nM |
| 1.82 nM | 0.34 nM |  | COC1OC2(C)CCC3CCCC(CCOCc4c(C)noc4C)C31OO2 (stereo not shown) [Compound 105] |  |  |  |  | anti-malarial activity / potency in words [4, 5]: particularly potent anti-malarial activity; IC90 ([1]; read-out: D6 IC90): 19.1 nM; IC90 [2, 7]: 1.64 nM |
| 1.14 nM | < 0.32 nM |  | COC1OC2(C)CCC3CCCC(CCI)C31OO2 (stereo not shown) [Compound 301] |  |  |  |  | IC90 ([1]; read-out: D6 IC90): 6.33 nM; IC90 [2, 7]: < 0.32 nM |

Continued, compound first:

| Structure (SMILES) | IC50 [1] | IC50 ([2]; Table IV, W2) | IC90 [1] | IC50 (W-2 Indochine Clone) | Artemisinin Indices, W-2 Indochine Clone (W-2 Indochine Clone) | IC50 (D-6 Sierra Leone Clone) | Artemisinin Indices, D-6 Sierra Leone Clone (D-6 Sierra Leone Clone) | also measured |
| --- | --- | --- | --- | --- | --- | --- | --- | --- |
| CCO[C@@H]1O[C@@H]2O[C@@]3(C)CC[C@H]4[C@H](C)CC[C@@H]([C@H]1C)[C@@]24OO3 [Arteether (alpha)] |  |  |  | 3.07 nM | 2.08 | 4.18 nM | 2.52 |  |
| CCO[C@H]1O[C@@H]2O[C@@]3(C)CC[C@H]4[C@H](C)CC[C@@H]([C@H]1C)[C@@]24OO3 [Arteether (beta)] |  |  |  | 2.97 nM | 2.18 | 4.07 nM | 2.58 |  |
| C[C@H]1[C@@H](OCc2ccc(C(=O)O)cc2)O[C@@H]2O[C@@]3(C)CC[C@H]4[C@H](C)CC[C@@H]1[C@@]24OO3 [Artelinic Acid] |  |  |  | 3.3 nM | 1.94 | 9.73 nM | 1.08 |  |
| CO[C@H]1O[C@@H]2O[C@@]3(C)CC[C@H]4[C@H](C)CC[C@@H]([C@H]1C)[C@@]24OO3 [Artemether] |  |  |  | 3.34 nM | 1.92 | 4.49 nM | 2.34 |  |
| C[C@@H]1CC[C@H]2[C@@H](C)C(=O)O[C@@H]3O[C@@]4(C)CC[C@@H]1[C@]32OO4 [Artemisinin, artemisinin] | 0.69 nM | 0.68 nM |  | 6.41 nM | 1.00 | 10.5 nM | 1.00 | Ratio of D-6/W-2 [3]: 2.4 |
| CCN(CC)CCCC(C)Nc1ccnc2cc(Cl)ccc12 (stereo not shown) [Chloroquine] | 1.21 nM |  |  | 100 nM | 0.06 | 10.8 nM | 0.97 | IC50 [2]: 61.7 nM; Ratio of D-6/W-2 [3]: 0.1 |
| COC(=O)c1ccc(C(=O)OCCC2CCCC3CCC4(C)OOC23C(OC)O4)cc1 (stereo not shown) [Compound 19] |  |  |  |  |  |  |  | anti-malarial activity / potency in words [4, 5]: substantial improvement over artemisinin; also recorded: comparable in potency to arteether; also recorded: comparable in potency to artemether; also recorded: considerably higher potency than the clinically used Chinese drug, artemisinin |
| COC1OC2(C)CCC3CCCC(CCOC(=O)c4ccc(C(=O)OCCN(C)C)cc4)C31OO2 (stereo not shown) [Compound 20] |  |  | 20.4 nM |  |  |  |  | IC90 [2, 6]: 24.7 nM |
| CCN(CC)C(=O)c1ccc(C(=O)OCCC2CCCC3CCC4(C)OOC23C(OC)O4)cc1 (stereo not shown) [Compound 21] |  |  |  |  |  |  |  | anti-malarial activity / potency in words [4, 5]: substantial improvement over artemisinin; also recorded: comparable in potency to arteether; also recorded: comparable in potency to artemether; also recorded: considerably higher potency than the clinically used Chinese drug, artemisinin |
| COC1OC2(C)CCC3CCCC(CCOC(=O)c4ccc(C(=O)OCCC5CCCC6CCC7(C)OOC56C(OC)O7)cc4)C31OO2 (stereo not shown) [Compound 22] |  |  | 857 nM |  |  |  |  |  |
| CCOP(=O)(OCC)OCCC1CCCC2CCC3(C)OOC12C(OC)O3 (stereo not shown) [Compound 28] |  |  | 0.99 nM |  |  |  |  | anti-malarial activity / potency in words [4]: substantial improvement over artemisinin; also recorded: comparable in potency to arteether; also recorded: higher potency than artemisinin; also recorded: particularly potent |
| COC1OC2(C)CCC3CCCC(CCOC(=O)N(c4ccccc4)c4ccccc4)C31OO2 (stereo not shown) [Compound 31] | 0.27 nM | < 0.16 nM |  |  |  |  |  | anti-malarial activity / potency in words [4, 5]: substantial improvement over artemisinin; also recorded: comparable in potency to arteether; also recorded: higher potency than artemisinin; also recorded: particularly potent; IC90 ([1]; read-out: D6 IC90): 2.25 nM; IC90 [2, 7]: < 0.18 nM |
| CCOP(=O)(COCCC1CCCC2CCC3(C)OOC12C(OC)O3)OCC (stereo not shown) [Compound 103] | 3.03 nM |  |  |  |  |  |  | IC90 ([1]; read-out: D6 IC90): 29.9 nM; IC50 [2]: 0.96 nM; IC90 ([2]; read-out: W2 IC90): 8.2 nM |
| C[C@H]1[C@@H](O)O[C@@H]2O[C@@]3(C)CC[C@H]4[C@H](C)CC[C@@H]1[C@@]24OO3 [Dihydroartemisinin] |  |  |  | 1.79 nM | 3.58 | 1.83 nM | 5.75 |  |
| CCCCN(CCCC)CCC(O)c1cc2c(Cl)cc(Cl)cc2c2cc(C(F)(F)F)ccc12 (stereo not shown) [Halofantrine] |  |  |  | 0.76 nM | 8.43 | 7.8 nM | 1.35 |  |
| OC(c1cc(C(F)(F)F)nc2c(C(F)(F)F)cccc12)C1CCCCN1 (stereo not shown) [Mefloquine] | 3.53 nM | 0.11 nM |  | 5.75 nM | 1.11 | 33.4 nM | 0.31 |  |
| CCc1nc(N)nc(N)c1-c1ccc(Cl)cc1 [Pyrimethamine] | 1.08 nM | > 250 nM |  | 176 nM | 0.03 | 0.4 nM | 26.11 |  |
| C=C[C@H]1C[N@@]2CC[C@H]1C[C@H]2[C@H](O)c1ccnc2ccc(OC)cc12 [Quinine] |  |  |  |  |  |  | 0.09 |  |
| COc1ncnc(NS(=O)(=O)c2ccc(N)cc2)c1OC [Sulfadoxine] |  |  |  | 80600 nM | < 0.01 | 89.4 nM | 0.11 |  |
